Assay results taken from patent publication EP1891955A1, “Use of 1,2,3-substituted indolizine derivatives, inhibitors of FGFs, for the preparation of a medicament intended for the treatment of degenerative joint diseases” (Sanofi-Aventis, priority 2006, dated 2008).
Marks after values point to notes of the source that are not given here.

Test system: STR/1N mice
Test: Knee joint damage in STR/1N mice developing osteoarthritis spontaneously (semi-quantitative histopathological score)
Assay type: in vivo
Settings: male STR/1N mice, 6-week treatment
Description: The effect of an FGF-antaqonist on the degree of knee joint damage in STR/1N mice, which develop osteoarthritis spontaneously
The experiment was performed according to the regulations of the German Animal Protection Law. Fifty 9-week old male STR/1N mice (strain bred and maintained at sanofi-aventis, Dept. of Laboratory Animal Safety and Welfare, D-65926 Frankfurt/Main, Germany) were randomized to 2 experimental groups (n=25/group). The animals were housed individually in standard mouse cages (room temperature 20 - 22°C; relative humidity 55-75%; 12 hours light/dark cycle) with free access to the powdered mouse standard food (Sniff R/M-H, Soest, Germany) and tap water. To achieve sustained drug exposure, the sodium 2-amino-5-[(1-methoxy-2-methylindolizin-3-yl)carbonyl]benzoic acid monohydrate was blended with the standard food at concentrations of 300 ppm (0.3 g/kg food) and administered to one experimental group of 25 mice ad libitum. The control group of 25 mice received unsupplemented standard food. Following the 6-week treatment period the animals were sacrificed by CO2 inhalation, their left knee joints were removed and decalcified for 3 days with formic acid (decalcifier, Shandon, Frankfurt/M., Germany), fixed in formalin and embedded in paraffin. Four sequential coronal sections of the complete knee joints (7 µm, 0.1 mm apart), stained with Hematoxyline-Eosine and Saffranin-O were evaluated by a blinded observer for the degree of histopathological joint alterations by using a semi-quantitative score as described in Table 1. Table 1: Semiquantitative Histopathological Score of Osteoarthritic Joint Damage in STR/1N Mice
The osteoarthritis joint damage was assessed by a semi-quantitative histopathological score. The STR/1N mice developed moderate osteoarthritis in the medial tibial plateau of the knee joint.

COc1c(C)c(C(=O)c2ccc(N)c(C(=O)O)c2)n2ccccc12.O.[Na] [sodium 2-amino-5-[(1-methoxy-2-methylindolizin-3-yl)carbonyl]benzoic acid monohydrate]
Histopathological Score Mean (SEM) (300 ppm (0.3 g/kg food) in food ad libitum, left knee joint, maximal total joint score = 128, p = 0.0118 Mann Whitney Test vs control 34.3 (3.8)): 23.5 (3.7)*
tolerability (300 ppm in food): well tolerated
reduction of the degree of histopathological joint damage (300 ppm in food, versus non-treated control): 32%
